Laboratory results taken from patent US20230270798A1, “SYNBIOTIC COMPOSITION” (SOCIETE DES PRODUITS NESTLE S.A., priority 2020, published 2023).

Tests used:
B. longum subsp. longum = assay: Short-term colonic incubation, population of B. longum subsp. longum (16S Illumina sequencing with flow cytometry); format: cell-based, Bifidobacterium longum subsp. longum; conditions: after 6 and 48 hours of incubation; synbiotic compared to the probiotic alone
Description: (§1) The aim of this project was to evaluate the properties of a synbiotic combination of Bifidobacterium longum subsp. longum ATCC BAA-999 and LNT using short-term colonic incubations (48 h), in which the proximal colon environment of a baby was simulated. The evaluation was based on the effects on microbial metabolic activity (SCFA, lactate and ammonium production) and community composition (16Stargeted Illumina sequencing), through comparison with a blank (no treatment), a probiotic (containing only the B. longum subsp. longum strain) and a prebiotic (containing only LNT).
(§2) In these experiments, a simplified simulation of the continuous Simulator of the Human Microbial Ecosystem (SHIME®) was used. […]
(§3) To account for biological variability, all tests were performed in triplicate, resulting in 12 independent incubations. […] Ammonium concentrations were measured at the start and after 48 h of incubation. The effect on the gut microbial community was assessed through Illumina sequencing at the start of the incubation and after 6 h, and 48 h. […]

Streptococcus salivarius = assay: Short-term colonic incubation, population of Streptococcus salivarius (16S Illumina sequencing with flow cytometry); format: cell-based
Description: as §1, §2, §3

CC(=O)N[C@H]1[C@H](O[C@H]2[C@@H](O)[C@@H](CO)O[C@@H](O[C@H]3[C@H](O)[C@@H](O)C(O)O[C@@H]3CO)[C@@H]2O)O[C@H](CO)[C@@H](O)[C@@H]1O[C@@H]1O[C@H](CO)[C@H](O)[C@H](O)[C@H]1O (stereo partly drawn) [prebiotic, Lacto-N-tetraose]
population of B. longum subsp. longum (in words) (B. longum subsp. longum): no effect
population of S. salivarius at 48 hours compared to the population at 6 hours (in words) (Streptococcus salivarius; 48 hours vs 6 hours): strongly decreases
boost of the population of Streptococcus salivarius (in words) (Streptococcus salivarius; after 6 and 48 hours of incubation): neither the probiotic alone, nor the prebiotic alone were able to boost
